# Structures can show the parent of a compound that is named as a salt.
# What was measured:
# healthy male adults = test: Clinical study on administration timing; format: in vivo, human
# Protocol: Administration timing before taking a meal was evaluated in healthy male adults. Used test drugs were a tablet comprising 10 mg of mitiglinide calcium salt hydrate and a placebo tablet. The tablet comprising 10 mg of mitiglinide calcium salt hydrate was administered at 0.5 min, 5 min, 10 min or 30 min before starting meal (Positive group), while the placebo tablet was administered at 0.5 min before starting meal. After administration, blood glucose levels were measured at starting meal and evaluated.
# [1] = test system: type II diabetic patients; test: Clinical study in type II diabetic patients; format: in vivo, human
# Protocol: Using the pharmaceutical composition described in Example 1, a clinical study was conducted in type II diabetic patients under the following conditions.
# Test drug and Mode of administration: Every patient orally administered either of a combination selected from the following combination groups (one tablet from each) three times a day just before meals (within 5 minutes before starting meal): • The present invention group: (1)+(4) • Positive control group: (2)+(3) • Positive control group: (3)+(4) • (1) a tablet comprising 10 mg of mitiglinide calcium salt hydrate; • (2) a tablet comprising 0.2 mg of voglibose (chemical name: (+)-1L-[1(OH),2,4,5/3]-5-[2-hydroxy-1-(hydroxymethyl)ethyl]amino-1-C-(hydroxymethyl)-1,2,3,4-cyclohexaneterol); • (3) a placebo tablet of mitiglinide calcium salt hydrate not containing any active ingredient; and • (4) a placebo tablet of voglibose not containing any active ingredient. • Treatment period: 12 weeks • Observation item: The following items were measured before administration, at a certain fixed time after the start of administration and at the completion of administration, and their changes were calculated, or the frequency of adverse drug reactions was calculated, and then evaluated.
# [2] = in comparison with voglibose and placebo
Compound,blood glucose level at starting meal (in words) (healthy male adults; administered at 30 minutes before starting meal),blood glucose level at starting meal (in words) (healthy male adults; administrated within 10 minutes before starting meal),"effect on HbA1C value (in words) ([1]; after 4 weeks after the start of administration, in comparison with voglibose and placebo)","frequencies of hypoglycemic symptoms and gastrointestinal disorders (in words) ([1]; human, in vivo)","effect on 1 hour and 2 hour values of postprandial plasma glucose (PPG) (in words) [1, 2]","effect on early morning fasting plasma glucose (FPG) (in words) [1, 2]","Change in 2 hour value of PPG, mean value ([1]; final evaluation, three times a day just before meals, 12 weeks)",effect on HbA1C value (in words) ([1]; in comparison with placebo)
"O=C(O)[C@H](CC(=O)N1C[C@H]2CCCC[C@H]2C1)Cc1ccccc1 [mitiglinide calcium salt hydrate, (+)-monocalcium bis[(2S,3a,7a-cis)-α-benzylhexahydro-γ-oxo-2-isoindolinebutyrate] dihydrate]",notably declined,able to maintain good blood glucose level,significantly lowered HbA1C value,decreased the frequencies of hypoglycemic symptoms and gastrointestinal disorders,significantly lowered 1 hour and 2 hour values of postprandial plasma glucose (PPG),significantly lowered early morning fasting plasma glucose (FPG),–,–
"OCC(CO)N[C@H]1C[C@](O)(CO)[C@@H](O)[C@H](O)[C@H]1O [voglibose, (+)-1L-[1(OH),2,4,5/3]-5-[2-hydroxy-1-(hydroxymethyl)ethyl]amino-1-C-(hydroxymethyl)-1,2,3,4-cyclohexaneterol, reference compound]",–,–,–,–,–,–,-5.1 mg/dL,significantly lowered HbA1C value

# Source: patent US20050267195A1, “Drug composition for blood sugar control” (priority 2002, published 2005)
